# Entries after “also recorded” stand apart in the source; their conditions may differ.
# Key:
# IRF [1] = test: THP1-ISG reporter cell line, luminescence; assay type: cell-based, human; conditions: THP1-ISG cells, 100 to 0.02 μM
# Description: High throughput screen (HTS) overview: To identify small molecule immunomodulators/adjuvants that robustly activate human immune cells, ˜200,000 small molecules were screened and tested against THP1 cells. The chemical libraries screened included known bioactive and commercial libraries from various sources including commercial libraries such as ChemDiv, ChemBridge, and Asinex. All libraries were owned and provided by the Institute of Chemistry and Cell Biology (ICCB)—Longwood (Harvard Medical School). The project primary screen incorporated two distinct arms: a) a luciferase-based screen which corresponds to the relative activation of the human NFκB Reporter gene; and b) a fluorescence-based screen, corresponding to the phenotypic adherence, a distinct marker of cell activation, of the THP1 cells. In a secondary luciferase-based screen IRF-inducing activities of selected hits using a THP1-ISG reporter cell line were evaluated. Here, discovery of a thiazole amide small molecule family with both NFκB/IRF-inducing and leukocyte adherence-inducing activities towards human leukocytes was observed.
# Briefly, THP1-dual NF-κB/IRF parent and derived cell lines were resuspended at a concentration of 10^5 cells/200 μl of THP1 culture medium and transferred to a 96-well plate pre-loaded with compounds dissolved in DMSO. In selected experiments, THP1 cells were also stimulated with TNF and IFNβ as controls for NF-κB and IRF activities, respectively. After 22-24 hours of incubation (37° C., 5% CO2), plates were spun down (500×g, room temperature, 5 minutes) and supernatants were harvested to assess NF-κB and IRF activities by measuring the levels of SEAP and Lucia luciferase with Quanti-Blue and Quanti-Luc, respectively.
# NF-κB [2] = test: THP1-NF-κB reporter cell line, luminescence; assay type: cell-based, human; conditions: THP1-NF-κB cells, 100 to 0.02 μM
# Description: (§1) The THP1-NF-κB Lucia, THP1-dual NF-κB/IRF parent cell line, knocked out for MyD88 (THP1-AMyD88), TBK1 (THP1-ΔTBK1), IRF3 (THP1-AIRF3), cGAS (THP1-AcGAS), STING (THP1-ASTING), or expressing murine STING were obtained from Invivogen (San Diego, CA). THP1-derived cell lines are human monocytic cells derived from the blood of a child with leukemia and contain NF-κB- and IRF-inducible reporter construct to allow colorimetric- or luminescence-based assessment of NF-κB and IRF activities. THP1 cells were cultured in RPMI 1640 supplemented with 10% non-heat inactivated fetal bovine serum (FBS), 10 mM HEPES, 1.0 mM sodium pyruvate, 50 ug/ml Pen-Strep, and 100 ug/mL Normocin™. Once cultured, the cells were stored in a 37° C. incubator with 5% CO2 and a humidified atmosphere. Cells were passaged every 2-3 days and not allowed to exceed a concentration of 2.0×10^6 cells/ml media.
# THP1-NF-κB cells between passage 15 and 18 and suspended in culture medium were dispensed into 384-well black clear-bottom plates (Corning 3712) at 30,000 cells/30 μl/well using a Combi liquid dispenser. To allow comparison to a benchmark small molecule with known immune stimulating activity, cells at the same concentration were stimulated with 50 μM R848, a TLR7/8 agonist, in 0.3% DMSO and added to every other well of column 24, which was left empty of cells, by multichannel pipette at the same volume. Five μl of 700 nM Phorbol myristate acetate (PMA) in THP1 culture media and 2.3% DMSO, a known peripheral blood cell mitogen, was added to every other well of column 23 by multichannel pipette (final concentration in well: 100 nM in 0.3% DMSO). Five μl of THP1 culture media with 2.3% DMSO was added to the remaining wells of column 23 by multichannel pipette (final concentration 0.3% DMSO). One hundred nl aliquots of library compounds diluted in 100% DMSO were transferred from their original 384-well plates to the assay plates using a Seiko pin transfer machine. Each library plate was pinned in duplicate, yielding two assay plates with identical conditions for comparison. Plates were then incubated for 24 hours at 37 C with 5% CO2 in humid conditions. Following incubation, 10 μL of supernatant was removed from each well and transferred to a white plate (Corning 3570) using a Vprep liquid transfer machine. 10 μL of recombinant Lucia protein (Invivogen) diluted 1:2000 in THP1 culture media was added to empty well 24P. Using a Combi liquid dispenser, 50 μL/well of Quanti-Luc substrate (Invivogen) diluted 1:3 in sterile water was added to the assay plate. Immediately after adding the substrate, the luminescence was read using a PerkinElmer Envision plate reader. This assay was adapted to a 96 well format to confirm and expand the HTS results.
# NF-κB [3] = test: NF-κB activity in THP1-dual NF-κB/IRF reporter cells; assay type: cell-based, human; conditions: 22-24 hr, 100, 25, 6.25 and 1.56 μM, fold over DMSO
# Description: as §1
# (§2) Briefly, THP1-dual NF-κB/IRF parent and derived cell lines were resuspended at a concentration of 10^5 cells/200 μl of THP1 culture medium and transferred to a 96-well plate pre-loaded with compounds dissolved in DMSO. In selected experiments, THP1 cells were also stimulated with TNF and IFNβ as controls for NF-κB and IRF activities, respectively. […]
# STING = test: NF-κB and IRF activities in THP1 cells knocked out for cGAS or STING; assay type: cell-based, human; conditions: 25 μM, 22-24 hr, knockout vs parent THP1 cells
# Description: as §1, §2
# THP1-NF-κB cells [4] = test: Annexin V staining for apoptotic cells; assay type: cell-based, human; conditions: 33 μM
# Experimental: (§3) Following incubation and supernatant transfer described above, each black assay plate was manually washed. First, remaining suspension cells were expelled into a bath of 15% bleach by shaking the plate upside down. The plate was then submerged in a 7 L bath of 1×PBS. Once submerged, each plate was shaken vigorously side-to-side to release any air bubbles forming in the wells. The plate was then removed and shaken into the bleach bath once again. This process was repeated 3 times per plate. 30 μL/well of a mix of 2 μg/mL Hoechst 33342 in PBS with 1% Para-formaldehyde was added using a Combi liquid dispenser to the washed assay plates. Plates were left in the dark to stain and fix for 20 minutes. Washed and stained assay plates were then loaded onto an Acumen laser scanning cytometer. Total fluorescence area and number of objects (nuclei) were measured using the instrument for each well. This assay was adapted to a 96 well format to confirm and expand the HTS results. […] After 24 hours of incubation (37° C., 5% CO2), plates were washed with PBS to determine the number of adherent cells Alternatively, plates were spun down (500×g, room temperature, 5 minutes) and cells were harvested for staining with fluorescent Annexin V or antibodies against co-stimulatory markers CD80 and CD86 (Biolegend) according to the manufacturer's protocols and analyzed by flow cytometry (BD LSRFortessa).
# C57BL/6 mice = test: Influenza rHA immunization of mice, anti-rHA IgG by ELISA; conditions: rHA + compound vs rHA alone; for adjuvant activity: anti-rHA IgG titers: prime Day 0, boost Day 28, serum Day 28 and Day 42, i.m., 100 nmol
# Experimental: C57BL/6 mice were obtained from Charles River Laboratories and housed in specific pathogen-free conditions in the animal research facilities at Boston Children's Hospital.
# For immunization experiments, adult mice were immunized intramuscularly (i.m.) in the right posterior thigh with 50 μl of vaccine containing 0.33 μg of each of the following recombinant influenza virus hemagglutinins (rHA): A/Michigan/45/2015 (H1N1), A/Hong Kong/4801/2014 (H3N2), and B/Brisbane/60/2008, contained in the 2016-2017 formulation of the FluBlok vaccine (Protein Sciences Corp.). Mice were immunized with a prime-boost schedule (two injections four weeks apart). Vaccine in all experimental groups was formulated with 10% (v/v) DMSO and 5% (v/v) Tween-80. As indicated for specific experimental groups, vaccine was also formulated with compound 057 (100 nmol, final DMSO concentration 10%). Serum was collected 28 days post-prime (pre-boost blood sample) and 14 days post-boost for antibody detection. rHA-specific IgG were quantified by ELISA. High binding flat bottom 96-well plates (Corning Life Sciences) were coated with 1 μg/ml rHA in carbonate buffer pH 9.6, incubated overnight at 4° C. and blocked with PBS+BSA 1% (Sigma-Aldrich) for 1 h at room temperature (RT). Then, sera from vaccinated mice were added with an initial dilution of 1:100 and 1:4 serial dilutions in PBS+BSA 1% and incubated for 2 hrs at RT. Plates were then washed and incubated for 1 hr at RT with HRP-conjugated anti-mouse IgG (Southern Biotech). At the end of the incubation plates were washed again and developed with tetramethylbenzidine (BD Biosciences) for 5 minutes, then stopped with 1 N H2SO4. The optical density was read at 450 nm Versamax microplate reader with SoftMax Pro Version 5 (both from Molecular Devices) and endpoint titers were calculated using as cutoff three times the optical density of the background.
# murine STING = biological target: T1, murine STING (Mus musculus, UniProt Q3TBT3); test: NF-κB and IRF activities in THP1-dual reporter cells expressing murine STING; assay type: cell-based; conditions: 25 μM, 22-24 hr, fold over DMSO
# T1 construct: host or cells: THP1-dual NF-κB/IRF reporter cells (human monocytic line) expressing murine STING
# T1 sequence (Q3TBT3 1-378): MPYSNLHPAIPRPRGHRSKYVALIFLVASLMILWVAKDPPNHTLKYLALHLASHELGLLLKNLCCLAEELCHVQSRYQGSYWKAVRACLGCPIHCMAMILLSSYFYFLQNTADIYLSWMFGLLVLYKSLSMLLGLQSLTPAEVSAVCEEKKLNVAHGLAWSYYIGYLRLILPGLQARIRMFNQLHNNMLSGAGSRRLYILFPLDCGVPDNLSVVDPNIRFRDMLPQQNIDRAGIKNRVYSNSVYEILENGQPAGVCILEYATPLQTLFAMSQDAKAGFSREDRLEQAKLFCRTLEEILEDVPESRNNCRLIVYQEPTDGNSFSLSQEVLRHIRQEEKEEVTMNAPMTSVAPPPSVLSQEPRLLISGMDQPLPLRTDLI
# Description: as §1, §2
# IRF [5] = test: IRF activity in THP1-dual NF-κB/IRF reporter cells; assay type: cell-based, human; conditions: 22-24 hr, 100, 25, 6.25 and 1.56 μM, fold over DMSO
# Description: as §1, §2
# THP1-NF-κB cells [6] = test: THP1 cell adherence assay; assay type: cell-based, human; conditions: 33 μM, PMA and R848 positive controls
# Experimental: as §3
# THP1-NF-κB cells [7] = test: Expression of co-stimulatory molecules CD80 and CD86 by flow cytometry; assay type: cell-based, human; conditions: 33 μM
# Experimental: as §3
# MyD88 = test: NF-κB and IRF activities in THP1 cells knocked out for MyD88, TBK1 or IRF3; assay type: cell-based, human; conditions: 25 μM, 22-24 hr, knockout vs parent THP1 cells
# Description: as §1, §2
SMILES,IRF-inducing activity (RLU) (IRF [1]),IRF-inducing activity (RLU) (IRF [1]; listed as 057.2),NFκB-inducing activity (RLU) (NF-κB [2]),NFκB-inducing activity (RLU) (NF-κB [2]; listed as 057.2),IRF-inducing activity (RLU) (IRF [1]; listed as 057.3),NFκB-inducing activity (RLU) (NF-κB [2]; listed as 057.3),NF-κB activity (NF-κB [3]),dependence of NF-κB and IRF activities on STING (STING),apoptosis (Annexin V+ cells) (THP1-NF-κB cells [4]),adjuvant activity: anti-rHA IgG titers (C57BL/6 mice),adjuvant activity: anti-rHA IgG titers (C57BL/6 mice; listed as PVP-057),"adjuvant activity: rHA-specific IgG titers (C57BL/6 mice; single i.m. injection Day 0, serum Day 14)",activation of murine STING (NF-κB and IRF activities) (murine STING),IRF activity (IRF [5]),cell adherence (number of adherent cells) (THP1-NF-κB cells [6]),expression of co-stimulatory molecules CD80 and CD86 (MFI) (THP1-NF-κB cells [7]),dependence of NF-κB and IRF activities on MyD88 (MyD88)
COc1ccc(C(=O)Nc2nc(CC(=O)Nc3nc4ccc(S(C)(=O)=O)cc4s3)cs2)cc1 [Compound 57.2],comparable to or greater than the parent molecule 057,concentration-dependent activity,comparable to or greater than the parent molecule 057,concentration-dependent activity,–,–,–,–,–,–,–,–,–,–,–,–,–
COc1ccc(C(=O)Nc2nc(CC(=O)Nc3nc4ccccc4s3)cs2)cc1OC [Compound 57.3],comparable to or greater than the parent molecule 057,–,comparable to or greater than the parent molecule 057,–,concentration-dependent activity,concentration-dependent activity,–,–,–,–,–,–,–,–,–,–,–
CCOc1ccc2nc(NC(=O)Cc3csc(NC(=O)c4cc(OC)cc(OC)c4)n3)sc2c1 [Compound 057],concentration-dependent activity; also recorded: robustly induces both NFκB and IRF activities,–,concentration-dependent activity; also recorded: robustly induces both NFκB and IRF activities,–,–,–,dose-dependent response; also recorded: elicited both NFκB and IRF activities; also recorded: elicits,STING-dependent,does not induce apoptosis; also recorded: without inducing cellular apoptosis,exerts adjuvant activity in vivo; also recorded: substantially higher antibody titers; also recorded: demonstrates in vivo adjuvanticity in mice,demonstrates in vivo adjuvanticity in mice,exerts adjuvant activity in vivo; also recorded: substantially higher antibody titers,activates murine STING; also recorded: activated THP1 cells expressing murine STING,dose-dependent response; also recorded: elicited both NFκB and IRF activities; also recorded: elicits,induces cell adherence; also recorded: elicits human leukocyte adherence,induces the expression co-stimulatory molecules; also recorded: elicited the expression of surface co-stimulatory molecules; also recorded: elicits,MyD88-independent

# From patent publication US12611456B2, “Use of thiazole amide compounds for modulating human immune response” (Children's Medical Center Corporation, priority 2019, dated 2026)
